Reference: patent publication US8828985B2, “Carbamate and urea inhibitors of 11-beta-hydroxysteroid dehydrogenase 1” (Vitae Pharmaceuticals, Inc., priority 2008, dated 2014)
Where two headings read alike, the source gives them in different places.

Assays:
[1] = target: T1, human 11β-HSD1 (Homo sapiens, UniProt P28845); test: biochemical; settings: for IC50: Biological Test Example 2 IC50 Range, microsomes from CHO cells overexpressing human 11β-HSD1, SPA; for inhibition at 0.1 µM: 1.5 h, read-out: Biological Test Example 2 Average % inhibition at 100 nm, at 100 nm
[2] = target: T1, human 11β-HSD1; settings: for IC50: read-out: Biological Test Example 2 IC50 Range, microsomes from CHO cells overexpressing human 11β-HSD1, SPA

T1 sequence (P28845 whole entry): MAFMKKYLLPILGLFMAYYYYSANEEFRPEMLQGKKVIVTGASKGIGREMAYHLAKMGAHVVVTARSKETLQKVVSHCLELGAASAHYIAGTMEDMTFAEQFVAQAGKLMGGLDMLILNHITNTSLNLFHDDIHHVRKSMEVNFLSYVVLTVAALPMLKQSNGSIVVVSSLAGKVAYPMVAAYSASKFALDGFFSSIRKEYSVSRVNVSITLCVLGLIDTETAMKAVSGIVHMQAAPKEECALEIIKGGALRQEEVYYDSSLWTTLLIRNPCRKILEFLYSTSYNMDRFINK

SMILES	Biological Test Example 2 Average % inhibition at 100 nm [2] [%]	inhibition at 0.1 µM [1] [%]	IC50 [1] [nM]	Biological Test Example 2 Average % inhibition at 111 nm [2] [%]	IC50 [2] [nM]
CC(C)COC(=O)NC1CCN(C(=O)OC2C3CC4CC2CC(C(N)=O)(C4)C3)C1 (single isomer, unassigned) [Example 18 Isomer 1, (cis-1-carbamoyl-4-adamantyl) (3R-(isobutoxycarbonylamino)pyrrolidine-1-carboxylate)]	22.6		> 100		
CC1(NC(=O)OC(C)(C)C)CCN(C(=O)OC2C3CC4CC2CC(C(N)=O)(C4)C3)C1 (single isomer, unassigned) [Example 22 Isomer 2, (trans-1-carbamoyl-4-adamantyl) 3-(tert-butoxycarbonylamino)-3-methylpyrrolidine-1-carboxylate]	95.5		< 100		
CC(C)(C)OC(=O)NC1(Cc2ccccc2)CCN(C(=O)OC2C3CC4CC2CC(C(N)=O)(C4)C3)C1 (single isomer, unassigned) [Example 29 Isomer 2.1, (trans-1-carbamoyl-4-adamantyl) 3-benzyl-3-(tert-butoxycarbonylamino)pyrrolidine-1-carboxylate]	96.9		< 100		
CC(C)COC(=O)NC1CCN(C(=O)OC2C3CC4CC2CC(C(N)=O)(C4)C3)C1 (single isomer, unassigned) [Example 18 Isomer 2, (trans-1-carbamoyl-4-adamantyl) (3R-(isobutoxycarbonylamino)pyrrolidine-1-carboxylate)]	95.0		< 100		
N#Cc1ccc(N[C@@H]2CCN(C(=O)OC3C4CC5CC3CC(C(=O)NC3CCCCC3)(C5)C4)C2)nc1 (single isomer, unassigned) [Example 117 Isomer 2]	63.1		< 100		
CC(C)(C)OC(=O)NC1(Cc2ccccc2)CCN(C(=O)OC2C3CC4CC2CC(C(N)=O)(C4)C3)C1 (single isomer, unassigned) [Example 29 Isomer 1, (cis-1-carbamoyl-4-adamantyl) 3-benzyl-3-(tert-butoxycarbonylamino)pyrrolidine-1-carboxylate]	41.2		> 100		
N#Cc1ccc(N[C@@H]2CCN(C(=O)NC3CC4CCC(C3)N4C(N)=O)C2)nc1 (single isomer, unassigned) [Example 104 Isomer 1]				−6.2	> 1000
CC(C)(C)OC(=O)NCC1CN(C(=O)OC2C3CC4CC2CC(C(N)=O)(C4)C3)C1 (single isomer, unassigned) [Example 17 Isomer 2, (trans-1-carbamoyl-4-adamantyl) 3-((tert-butoxycarbonylamino)methyl)azetidine-1-carboxylate]	92.8		< 100		
N#Cc1ccc(N[C@@H]2CCN(C(=O)NC3CC4CCC(C3)N4C(N)=O)C2)nc1 (single isomer, unassigned) [Example 104 Isomer 2]				−6.1	> 1000
N#Cc1ccc(N[C@@H]2CCN(C(=O)OC3C4CC5CC3CC(C(=O)NC3CCCCC3)(C5)C4)C2)nc1 (single isomer, unassigned) [Example 117 Isomer 1]	17.85		> 100		
CC(C)(C)OC(=O)NC1(Cc2ccccc2)CCN(C(=O)OC2C3CC4CC2CC(C(N)=O)(C4)C3)C1 (single isomer, unassigned) [Example 29 Isomer 2.2, (trans-1-carbamoyl-4-adamantyl) 3-benzyl-3-(tert-butoxycarbonylamino)pyrrolidine-1-carboxylate]	89.3		< 100		
CC(C)(C)OC(=O)NCC1CN(C(=O)OC2C3CC4CC2CC(C(N)=O)(C4)C3)C1 (single isomer, unassigned) [Example 17 Isomer 1, (cis-1-carbamoyl-4-adamantyl) 3-((tert-butoxycarbonylamino)methyl)azetidine-1-carboxylate]	22.1		> 100		
CC1(NC(=O)OC(C)(C)C)CCN(C(=O)OC2C3CC4CC2CC(C(N)=O)(C4)C3)C1 (single isomer, unassigned) [Example 22 Isomer 2.1, (trans-1-carbamoyl-4-adamantyl) 3-(tert-butoxycarbonylamino)-3-methylpyrrolidine-1-carboxylate]	88.5		< 100		
CC1(NC(=O)OC(C)(C)C)CCN(C(=O)OC2C3CC4CC2CC(C(N)=O)(C4)C3)C1 (single isomer, unassigned) [Example 22 Isomer 1, (cis-1-carbamoyl-4-adamantyl) 3-(tert-butoxycarbonylamino)-3-methylpyrrolidine-1-carboxylate]	15.7		> 100		
CC(C)(C)OC(=O)NC1(Cc2ccccc2)CCN(C(=O)OC2C3CC4CC2CC(C(N)=O)(C4)C3)C1 (single isomer, unassigned) [Example 29 Isomer 2, (trans-1-carbamoyl-4-adamantyl) 3-benzyl-3-(tert-butoxycarbonylamino)pyrrolidine-1-carboxylate]	90.8		< 100		
CC1(NC(=O)OC(C)(C)C)CCN(C(=O)OC2C3CC4CC2CC(C(N)=O)(C4)C3)C1 (single isomer, unassigned) [Example 22 Isomer 2.2, (trans-1-carbamoyl-4-adamantyl) 3-(tert-butoxycarbonylamino)-3-methylpyrrolidine-1-carboxylate]	82.7		< 100		
CS(=O)(=O)N1C2CCC1CC(NC(=O)N1CC[C@@H](Nc3ccc(C#N)cn3)C1)C2 (stereo partly drawn) [Example 106, (3R)-3-(5-cyanopyridin-2-ylamino)-N-(8-(methylsulfonyl)-8-azabicyclo[3.2.1]octan-3-yl)pyrrolidine-1-carboxamide]		3.9	> 100		
CN(C)C(=O)c1cnc(N[C@@H]2CCN(C(=O)O[C@H]3C4CC5CC3C[C@](O)(C5)C4)C2)nc1 [Example 111, (R)-(trans-1-hydroxy-4-adamantyl) 3-(5-(dimethylcarbamoyl)pyrimidin-2-ylamino)pyrrolidine-1-carboxylate]		33.5	> 100		
N#Cc1cccnc1N[C@@H]1CCN(C(=O)O[C@H]2C3CC4CC2C[C@](C#N)(C4)C3)C1 [Example 73, (3R) (trans-1-cyano-4-adamantyl) 3-(3-cyanopyridin-2-ylamino)pyrrolidine-1-carboxylate]		94.6	< 100		

Further lines, with some results ahead:

Biological Test Example 2 Average % inhibition at 100 nm [2] [%]	inhibition at 0.1 µM [1] [%]	SMILES	IC50 [1] [nM]	Biological Test Example 2 Average % inhibition at 111 nm [2] [%]	IC50 [2] [nM]
35.4		CC(C)(C)OC(=O)N1CCC2CN(C(=O)OC3C4CC5CC3CC(C(N)=O)(C5)C4)CC21 (single isomer, unassigned) [Example 23 Isomer 1, 1-tert-butyl 5-(cis-1-carbamoyl-4-adamantyl)hexahydropyrrolo[3,4-b]pyrrole-1,5-dicarboxylate]	> 100		
91.3		NC(=O)C12CC3CC(C1)C(OC(=O)N1CC[C@@H](NC(=O)OCc4ccccc4)C1)C(C3)C2 (single isomer, unassigned) [Example 25 Isomer 2]	< 100		
40.8		NC(=O)C12CC3CC(C1)C(OC(=O)N1CC[C@@H](Nc4ncccn4)C1)C(C3)C2 (single isomer, unassigned) [Example 62 Isomer 1]	< 100		
58.4		CNC(=O)C12CC3CC(C1)C(OC(=O)N1CC[C@@H](Nc4ccc(C#N)cn4)C1)C(C3)C2 (single isomer, unassigned) [Example 114 Isomer 2]	< 100		
7.15		N#Cc1ccc(N[C@@H]2CCN(C(=O)OC3C4CC5CC3CC(C(=O)NC3CC3)(C5)C4)C2)nc1 (single isomer, unassigned) [Example 118 Isomer 2]			> 100
11.8		CNC(=O)C12CC3CC(C1)C(OC(=O)N1CC[C@@H](Nc4ccc(C#N)cn4)C1)C(C3)C2 (single isomer, unassigned) [Example 114 Isomer 1]	> 100		
91.3		CC(C)(C)OC(=O)N1CCCC12CCN(C(=O)OC1C3CC4CC1CC(C(N)=O)(C4)C3)C2 (single isomer, unassigned) [Example 30 Isomer 2, 1-tert-butyl 7-(trans-1-carbamoyl-4-adamantyl) 1,7-diazaspiro[4.4]nonane-1,7-dicarboxylate]	< 100		
94.4		CC(C)(C)OC(=O)N1CCC2CN(C(=O)OC3C4CC5CC3CC(C(N)=O)(C5)C4)CC21 (single isomer, unassigned) [Example 23 Isomer 2, 1-tert-butyl 5-(trans-1-carbamoyl-4-adamantyl)hexahydropyrrolo[3,4-b]pyrrole-1,5-dicarboxylate]	< 100		
87.4		CC(C)OC(=O)N[C@@H]1CCN(C(=O)OC2C3CC4CC2CC(C(N)=O)(C4)C3)C1 (single isomer, unassigned) [Example 24 Isomer 2]	< 100		
45.6		NC(=O)C12CC3CC(C1)C(OC(=O)N1CC[C@@H](NC(=O)OCc4ccccc4)C1)C(C3)C2 (single isomer, unassigned) [Example 25 Isomer 1]	> 100		
78.7		NC(=O)C12CC3CC(C1)C(OC(=O)N1CC[C@@H](Nc4ncccn4)C1)C(C3)C2 (single isomer, unassigned) [Example 62 Isomer 2]			< 100
